Data reported in patent US5663207A, “Gem-dichlorocyclopropanes as antitumor agents” (priority 1995, dated 1997).
Like-named read-outs stand apart in the source and are kept apart here.

Columns and labels:
estrogen receptor = target: T1, estrogen receptor (Rattus norvegicus, UniProt P06211); conditions: cited from earlier work; for RBA (relative binding affinity): relative to estradiol = 100%
T1 construct: ovariectomized rat uterine cytosolic estrogen receptor preparation; from tissue; host or cells: uterine cytosol of ovariectomized Sprague-Dawley rats (immature rats from Sasco are named as uterus source, mature ovariectomized rats)
T1 sequence (P06211 1-600): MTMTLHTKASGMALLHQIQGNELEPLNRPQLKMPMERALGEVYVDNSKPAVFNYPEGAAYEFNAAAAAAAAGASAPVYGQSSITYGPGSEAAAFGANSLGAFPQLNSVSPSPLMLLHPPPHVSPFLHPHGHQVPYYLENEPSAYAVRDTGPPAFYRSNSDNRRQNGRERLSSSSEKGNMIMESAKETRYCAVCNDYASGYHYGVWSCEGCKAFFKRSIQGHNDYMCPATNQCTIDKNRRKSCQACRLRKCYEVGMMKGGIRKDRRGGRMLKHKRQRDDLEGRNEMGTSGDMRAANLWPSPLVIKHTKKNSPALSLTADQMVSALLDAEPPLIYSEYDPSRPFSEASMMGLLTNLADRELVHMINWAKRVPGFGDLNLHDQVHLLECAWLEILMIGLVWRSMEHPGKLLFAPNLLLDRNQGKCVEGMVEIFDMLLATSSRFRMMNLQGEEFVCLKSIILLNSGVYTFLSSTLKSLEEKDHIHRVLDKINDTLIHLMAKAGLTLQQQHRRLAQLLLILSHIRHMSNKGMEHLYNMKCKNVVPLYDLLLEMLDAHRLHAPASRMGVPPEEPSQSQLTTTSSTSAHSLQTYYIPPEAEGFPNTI

[1] = tested on: MCF-7 human breast cancer cells; conditions: 10^-6 M; Day et al., J. Med. Chem. 34, 842-851 (1991); cited from earlier work
[2] = tested on: Immature Swiss-Webster female mice (estradiol-stimulated uterine weight); test: Antiuterotrophic assay for antiestrogenic activity in immature mice; format: in vivo, mouse (Swiss-Webster); conditions: 0.4, 0.8, and 1.6 mg; three-day assay; estradiol 0.03 μg
Text: The biological evaluation of the test compounds consisted of the in vitro rat cytosolic estradiol receptor binding assay, the in vivo immature mouse uterotrophic (estrogenic) and antiuterotrophic (antiestrogenic) assays, and the in vitro suppression of the proliferation of the ER positive MCF-7 human breast cancer cell line.
Vital-free immature female Swiss-Webster mice were obtained at 17-19 days of age from Sasco weighing 8-10 g, and were used in the uterotrophic and antiuterotrophic assays. Immature female Sprague-Dawley rats, obtained at 17-19 days of age from Sasco, weighing 28-33 g, were used as sources of uteri for the estradiol receptor binding assay. Animals were housed in wire topped polycarbonate cages at six animals per cage, with the environment controlled at 25° C. and a 12 h light/dark cycle. […]
The antiestrogenic assay was conducted as described for the estrogenic assay, except that each mouse in the cyclopropyl treatment groups received a standard stimulating dose of estradiol (0.03 μg) in sesame oil (0.1 mL) and the test compounds or MER 25 were administered in isopropyl myristate (0.05 mL) in a dosage range of 0.4, 0.8 and 1.6 mg (total dose). […] Antiestrogenic activity was measured as a decrease in the estradiol-stimulated […] response in groups that received both the test compound and estradiol as compared to the group treated only with estradiol.

Row | SMILES | RBA (relative binding affinity) (estrogen receptor; Day et al., J. Med. Chem. 34, 842-851 (1991)) | MCF-7 Inhibition [1] | RBA (relative binding affinity) (estrogen receptor; footnote e, Day et al. (1991)) | [3H]-estradiol displacement curve (in words) (estrogen receptor; standards, Day et al., 1991) | antiestrogenic activity: effect on estradiol-induced uterine weight gain (in words) [2]
1 | ClC1(Cl)[C@H](c2ccccc2)[C@@H]1c1ccccc1 [Analog II] | 0.01% | 20.4% |  |  | 
2 | CCN(CC)CCOc1ccc(C(O)(Cc2ccc(OC)cc2)c2ccccc2)cc1 (centres unmarked) [MER-25] |  |  | --^e (Less than 0.01%.) | very weak dose-related displacement | significant reduction in estradiol-induced uterotrophic activity
